Results from US8394823B2, “Triazolopyridine compounds useful as DGAT1 inhibitors” (Bristol-Myers Squibb Company, priority 2008, dated 2013).
pIC50: −log10 of the molar value.

Each compound was assayed against T1, recombinant human DGAT1 (Homo sapiens, UniProt O75907) (assay: DGAT1 enzyme assay). Conditions: membranes from Sf9 insect cells expressing recombinant human DGAT1; 25 μM 2-monooleoyl-glycerol, 25 μM [3H]-stearoyl-CoA, pH 7.4, 30 min, 25° C., SPA.
T1 construct: made in house; host or cells: Sf9 insect cells (baculovirus)
T1 sequence (O75907 1-488): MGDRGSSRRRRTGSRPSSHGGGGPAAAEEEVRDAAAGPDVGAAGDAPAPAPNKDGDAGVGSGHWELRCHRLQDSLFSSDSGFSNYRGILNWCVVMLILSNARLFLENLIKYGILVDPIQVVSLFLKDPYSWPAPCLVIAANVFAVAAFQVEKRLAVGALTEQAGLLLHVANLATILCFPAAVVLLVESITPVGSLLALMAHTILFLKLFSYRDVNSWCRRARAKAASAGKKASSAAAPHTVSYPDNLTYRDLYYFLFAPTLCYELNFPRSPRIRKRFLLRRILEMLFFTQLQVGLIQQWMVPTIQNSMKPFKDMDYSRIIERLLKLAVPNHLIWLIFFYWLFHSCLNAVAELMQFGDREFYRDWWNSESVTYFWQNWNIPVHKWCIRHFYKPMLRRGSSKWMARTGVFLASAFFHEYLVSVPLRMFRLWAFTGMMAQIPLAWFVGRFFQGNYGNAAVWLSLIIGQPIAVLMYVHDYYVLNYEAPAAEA
Format: biochemical
Experimental: DGAT1 enzyme assays were conducted using membranes isolated from Sf9 insect cells expressing the recombinant human DGAT1 cDNA. The assays were conducted in 384-well plates with total volume of 25 μl at 25° C. In each assay, 300 ng of recombinant human DGAT1 membrane was incubated with 25 μM of 2-monooleoyl-glycerol and 25 μM of [^3H]-stearoyl-CoA in 100 mM potassium phosphate (pH 7.4) for 30 min with various concentrations of compounds delivered in DMSO. The assay was terminated by the addition of 30 μl of Stopping Solution [50 mM HEPES, 5 mg/ml Yittrium Oxide (YOX) Polylysine SPA beads, 3.33 mg/ml Fraction V BSA, 200 μM Mercuric chloride]. The signal was measured using LEADSEEKER^SM for 5 minutes. To calculate the degree of inhibition, the zero level of enzyme activity (blank) was defined by the above assay using Sf9 cell membrane uninfected with baculovirus and the 100% level of DGAT1 enzyme activity was defined by human DGAT1 assay with the vehicle DMSO. The IC50 values of inhibitors were determined by Excel-fit.

| pIC50 | Compound |
| --- | --- |
| 8.00 | CC(C)[C@H](Cc1nnc2cc(-c3ccc(Nc4nc5ccc(Cl)cc5s4)cc3)ccn12)C(=O)O [Example 1, (S)-2-((7-(4-(6-Chlorobenzo[d]thiazol-2-ylamino)phenyl)-[1,2,4]triazolo[4,3-a]pyridin-3-yl)methyl)-3-methylbutanoic acid] |
| 5.14 | COC(=O)[C@@H](Cc1nnc2cc(-c3ccc(Nc4nc5ccc(Cl)cc5s4)cc3)ccn12)C(C)C [Example 1F, (S)-Methyl 2-((7-(4-(6-chlorobenzo[d]thiazol-2-ylamino)phenyl)-[1,2,4]triazolo[4,3-a]pyridin-3-yl)methyl)-3-methylbutanoate] |
| 6.80 | CC(C)[C@@H](Cc1nnc2cc(-c3ccc(Nc4nc5ccc(Cl)cc5s4)cc3)ccn12)C(=O)O [Example 2, (R)-2-((7-(4-(6-Chlorobenzo[d]thiazol-2-ylamino)phenyl)-[1,2,4]triazolo[4,3-a]pyridin-3-yl)methyl)-3-methylbutanoic acid] |
| 4.82 | COC(=O)[C@H](Cc1nnc2cc(-c3ccc(Nc4nc5ccc(Cl)cc5s4)cc3)ccn12)C(C)C [Example 2B, (R)-Methyl 2-((7-(4-(6-chlorobenzo[d]thiazol-2-ylamino)phenyl)-[1,2,4]triazolo[4,3-a]pyridin-3-yl)methyl)-3-methylbutanoate] |
| 6.49 | CC(C)C[C@H](Cc1nnc2cc(-c3ccc(Nc4nc5ccc(Cl)cc5s4)cc3)ccn12)C(=O)O [Example 3, (R)-2-((7-(4-(6-Chlorobenzo[d]thiazol-2-ylamino)phenyl)-[1,2,4]triazolo[4,3-a]pyridin-3-yl)methyl)-4-methylpentanoic acid] |
| 4.60 | COC(=O)[C@@H](Cc1nnc2cc(-c3ccc(Nc4nc5ccc(Cl)cc5s4)cc3)ccn12)CC(C)C [Example 3B, (R)-Methyl 2-((7-(4-(6-chlorobenzo[d]thiazol-2-ylamino)phenyl)-[1,2,4]triazolo[4,3-a]pyridin-3-yl)methyl)-4-methylpentanoate] |
| 5.55 | CC(C)C[C@@H](Cc1nnc2cc(-c3ccc(Nc4nc5ccc(Cl)cc5s4)cc3)ccn12)C(=O)O [Example 4, (S)-2-((7-(4-(6-Chlorobenzo[d]thiazol-2-ylamino)phenyl)-[1,2,4]triazolo[4,3-a]pyridin-3-yl)methyl)-4-methylpentanoic acid] |
| 4.30 | COC(=O)[C@H](Cc1nnc2cc(-c3ccc(Nc4nc5ccc(Cl)cc5s4)cc3)ccn12)CC(C)C [Example 4B, (S)-Methyl 2-((7-(4-(6-chlorobenzo[d]thiazol-2-ylamino)phenyl)-[1,2,4]triazolo[4,3-a]pyridin-3-yl)methyl)-4-methylpentanoate] |
| 6.70 | CCCC[C@H](Cc1nnc2cc(-c3ccc(Nc4nc5ccc(Cl)cc5s4)cc3)ccn12)C(=O)O [Example 5, (R)-2-((7-(4-(6-Chlorobenzo[d]thiazol-2-ylamino)phenyl)-[1,2,4]triazolo[4,3-a]pyridin-3-yl)methyl)hexanoic acid] |
| 5.44 | O=C(O)[C@@H](Cc1nnc2cc(-c3ccc(Nc4nc5ccc(Cl)cc5s4)cc3)ccn12)CC1CCCCC1 [Example 6, (R)-3-(7-(4-(6-Chlorobenzo[d]thiazol-2-ylamino)phenyl)-[1,2,4]triazolo[4,3-a]pyridin-3-yl)-2-(cyclohexylmethyl)propanoic acid] |
| 5.55 | O=C(O)[C@@H](Cc1nnc2cc(-c3ccc(Nc4nc5ccc(Cl)cc5s4)cc3)ccn12)C1CCCCC1 [Example 7, (S)-3-(7-(4-(6-Chlorobenzo[d]thiazol-2-ylamino)phenyl)-[1,2,4]triazolo[4,3-a]pyridin-3-yl)-2-cyclohexylpropanoic acid] |
| 6.31 | O=C(O)CCc1nnc2cc(-c3ccc(Nc4nc5ccc(Cl)cc5s4)cc3)ccn12 [Example 8, 3-(7-(4-(6-Chlorobenzo[d]thiazol-2-ylamino)phenyl)-[1,2,4]triazolo[4,3-a]pyridin-3-yl)propanoic acid] |
